In article PMC2989405 (Cell, 2009):

Tests used:
[1] = molecular target: T1, MrgprA3 (Mus musculus, UniProt Q91WW3); test: calcium imaging; type: cell-based; conditions: agonist; dose-response in figure
T1 sequence (Q91WW3 1-302): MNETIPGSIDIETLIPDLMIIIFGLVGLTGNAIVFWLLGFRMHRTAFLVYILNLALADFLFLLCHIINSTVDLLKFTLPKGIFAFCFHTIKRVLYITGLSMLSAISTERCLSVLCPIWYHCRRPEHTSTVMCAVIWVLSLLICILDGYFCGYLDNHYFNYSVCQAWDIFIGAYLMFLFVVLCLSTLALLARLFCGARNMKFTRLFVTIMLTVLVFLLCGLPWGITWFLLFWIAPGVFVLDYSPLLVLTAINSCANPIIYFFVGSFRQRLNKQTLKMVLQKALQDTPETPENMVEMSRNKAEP

[2] = molecular target: T2, rat MrgprA (Rattus norvegicus, UniProt Q7TN49); test: response of electroporated Mrgpr-deficient mouse DRG neurons; type: cell-based; conditions: agonist
T2 sequence (Q7TN49 1-304): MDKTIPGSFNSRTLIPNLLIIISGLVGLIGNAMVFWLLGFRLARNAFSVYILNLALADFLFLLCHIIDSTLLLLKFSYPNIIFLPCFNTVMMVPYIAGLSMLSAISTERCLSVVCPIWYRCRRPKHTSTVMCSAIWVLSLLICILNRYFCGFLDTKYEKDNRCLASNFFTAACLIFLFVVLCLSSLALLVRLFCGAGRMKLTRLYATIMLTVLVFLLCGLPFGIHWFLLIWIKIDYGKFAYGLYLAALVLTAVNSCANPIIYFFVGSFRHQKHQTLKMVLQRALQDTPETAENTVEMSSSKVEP

Compound | calcium imaging (fura-2) in transfected HEK293 cells [1] | response of electroporated Mrgpr-deficient mouse DRG neurons [2]
C=C[C@H]1CN2CC[C@H]1C[C@H]2[C@H](O)c1ccnc2ccc(OC)cc12 [quinine] | Unlike CQ, quinine weakly activates MrgprA3 | 
CCN(CC)CCCC(C)Nc1ccnc2cc(Cl)ccc12 (centres unmarked) [chloroquine] |  | Expression of rat MrgprA in Mrgpr-clusterΔ^−/− DRG neurons conferred CQ sensitivity upon them
